Earlier results, collected in article PMC11728000, “Antitumor Activity and Multi-Target Mechanism of Phenolic Schiff Bases Bearing Methanesulfonamide Fragments: Cell Cycle Analysis and a Molecular Modeling Study” (International Journal of Molecular Sciences, 2024).

Assays:
[1] = test system: U251; parameters: method as in https://dtp.cancer.gov/dtpstandard/dwindex/index.jsp; details: ref https://dtp.cancer.gov/dtpstandard/dwindex/index.jsp; cited from earlier work
[2] = test system: DU-145; parameters: method as in https://dtp.cancer.gov/dtpstandard/dwindex/index.jsp; details: ref https://dtp.cancer.gov/dtpstandard/dwindex/index.jsp; cited from earlier work
[3] = test system: 786-0; parameters: method as in https://dtp.cancer.gov/dtpstandard/dwindex/index.jsp; details: ref https://dtp.cancer.gov/dtpstandard/dwindex/index.jsp; cited from earlier work
[4] = test system: BT-549; parameters: method as in https://dtp.cancer.gov/dtpstandard/dwindex/index.jsp; details: ref https://dtp.cancer.gov/dtpstandard/dwindex/index.jsp; cited from earlier work
[5] = test system: HS 578T; parameters: method as in https://dtp.cancer.gov/dtpstandard/dwindex/index.jsp; details: ref https://dtp.cancer.gov/dtpstandard/dwindex/index.jsp; cited from earlier work
[6] = test system: NCI-H23; parameters: method as in https://dtp.cancer.gov/dtpstandard/dwindex/index.jsp; details: ref https://dtp.cancer.gov/dtpstandard/dwindex/index.jsp; cited from earlier work
[7] = test system: UACC-62; parameters: method as in https://dtp.cancer.gov/dtpstandard/dwindex/index.jsp; details: ref https://dtp.cancer.gov/dtpstandard/dwindex/index.jsp; cited from earlier work
[8] = test system: Ovarian Cancer subpanel tumor cell lines; details: cited from earlier work; for GI50: read-out: GI50, subpanel average, ref https://dtp.cancer.gov/dtpstandard/dwindex/index.jsp; for CC50: read-out: LC50, subpanel average, ref https://dtp.cancer.gov/dtpstandard/dwindex/index.jsp; for TGI, subpanel average: ref https://dtp.cancer.gov/dtpstandard/dwindex/index.jsp
[9] = test system: HCC-2998; parameters: method as in https://dtp.cancer.gov/dtpstandard/dwindex/index.jsp; details: ref https://dtp.cancer.gov/dtpstandard/dwindex/index.jsp; cited from earlier work
[10] = test system: Leukemia subpanel tumor cell lines; details: cited from earlier work; for GI50: read-out: GI50, subpanel average, ref https://dtp.cancer.gov/dtpstandard/dwindex/index.jsp; for CC50: read-out: LC50, subpanel average, ref https://dtp.cancer.gov/dtpstandard/dwindex/index.jsp; for TGI, subpanel average: ref https://dtp.cancer.gov/dtpstandard/dwindex/index.jsp
[11] = test system: OVCAR-4; parameters: method as in https://dtp.cancer.gov/dtpstandard/dwindex/index.jsp; details: ref https://dtp.cancer.gov/dtpstandard/dwindex/index.jsp; cited from earlier work
[12] = test system: OVCAR-8; parameters: method as in https://dtp.cancer.gov/dtpstandard/dwindex/index.jsp; details: ref https://dtp.cancer.gov/dtpstandard/dwindex/index.jsp; cited from earlier work
[13] = test system: MDA-MB-231/ATCC; parameters: method as in https://dtp.cancer.gov/dtpstandard/dwindex/index.jsp; details: ref https://dtp.cancer.gov/dtpstandard/dwindex/index.jsp; cited from earlier work
[14] = test system: K-562; parameters: method as in https://dtp.cancer.gov/dtpstandard/dwindex/index.jsp; details: ref https://dtp.cancer.gov/dtpstandard/dwindex/index.jsp; cited from earlier work
[15] = test system: M14; parameters: method as in https://dtp.cancer.gov/dtpstandard/dwindex/index.jsp; details: ref https://dtp.cancer.gov/dtpstandard/dwindex/index.jsp; cited from earlier work
[16] = test system: HCT-15; parameters: method as in https://dtp.cancer.gov/dtpstandard/dwindex/index.jsp; details: ref https://dtp.cancer.gov/dtpstandard/dwindex/index.jsp; cited from earlier work
[17] = test system: MOLT-4; parameters: method as in https://dtp.cancer.gov/dtpstandard/dwindex/index.jsp; details: ref https://dtp.cancer.gov/dtpstandard/dwindex/index.jsp; cited from earlier work
[18] = test system: SF-539; parameters: method as in https://dtp.cancer.gov/dtpstandard/dwindex/index.jsp; details: ref https://dtp.cancer.gov/dtpstandard/dwindex/index.jsp; cited from earlier work
[19] = test system: NCI-H460; parameters: method as in https://dtp.cancer.gov/dtpstandard/dwindex/index.jsp; details: ref https://dtp.cancer.gov/dtpstandard/dwindex/index.jsp; cited from earlier work
[20] = test system: MDA-MB-435; parameters: method as in https://dtp.cancer.gov/dtpstandard/dwindex/index.jsp; details: ref https://dtp.cancer.gov/dtpstandard/dwindex/index.jsp; cited from earlier work
[21] = test system: NCI-H322M; parameters: method as in https://dtp.cancer.gov/dtpstandard/dwindex/index.jsp; details: ref https://dtp.cancer.gov/dtpstandard/dwindex/index.jsp; cited from earlier work
[22] = test system: CCRF-CEM; parameters: method as in https://dtp.cancer.gov/dtpstandard/dwindex/index.jsp; details: ref https://dtp.cancer.gov/dtpstandard/dwindex/index.jsp; cited from earlier work
[23] = test system: SK-OV-3; parameters: method as in https://dtp.cancer.gov/dtpstandard/dwindex/index.jsp; details: ref https://dtp.cancer.gov/dtpstandard/dwindex/index.jsp; cited from earlier work
[24] = test system: SF-268; parameters: method as in https://dtp.cancer.gov/dtpstandard/dwindex/index.jsp; details: ref https://dtp.cancer.gov/dtpstandard/dwindex/index.jsp; cited from earlier work
[25] = test system: MCF-7; parameters: method as in https://dtp.cancer.gov/dtpstandard/dwindex/index.jsp; details: ref https://dtp.cancer.gov/dtpstandard/dwindex/index.jsp; cited from earlier work
[26] = test system: Renal Cancer subpanel tumor cell lines; details: cited from earlier work; for GI50: read-out: GI50, subpanel average, ref https://dtp.cancer.gov/dtpstandard/dwindex/index.jsp; for CC50: read-out: LC50, subpanel average, ref https://dtp.cancer.gov/dtpstandard/dwindex/index.jsp; for TGI, subpanel average: ref https://dtp.cancer.gov/dtpstandard/dwindex/index.jsp
[27] = test system: OVCAR-5; parameters: method as in https://dtp.cancer.gov/dtpstandard/dwindex/index.jsp; details: ref https://dtp.cancer.gov/dtpstandard/dwindex/index.jsp; cited from earlier work
[28] = test system: EKVX; parameters: method as in https://dtp.cancer.gov/dtpstandard/dwindex/index.jsp; details: ref https://dtp.cancer.gov/dtpstandard/dwindex/index.jsp; cited from earlier work
[29] = test system: NCI/ADR-RES; parameters: method as in https://dtp.cancer.gov/dtpstandard/dwindex/index.jsp; details: ref https://dtp.cancer.gov/dtpstandard/dwindex/index.jsp; cited from earlier work
[30] = test system: SR; parameters: method as in https://dtp.cancer.gov/dtpstandard/dwindex/index.jsp; details: ref https://dtp.cancer.gov/dtpstandard/dwindex/index.jsp; cited from earlier work
[31] = test system: ACHN; parameters: method as in https://dtp.cancer.gov/dtpstandard/dwindex/index.jsp; details: ref https://dtp.cancer.gov/dtpstandard/dwindex/index.jsp; cited from earlier work
[32] = test system: COLO 205; parameters: method as in https://dtp.cancer.gov/dtpstandard/dwindex/index.jsp; details: ref https://dtp.cancer.gov/dtpstandard/dwindex/index.jsp; cited from earlier work
[33] = test system: SNB-75; parameters: method as in https://dtp.cancer.gov/dtpstandard/dwindex/index.jsp; details: ref https://dtp.cancer.gov/dtpstandard/dwindex/index.jsp; cited from earlier work
[34] = test system: SN12C; parameters: method as in https://dtp.cancer.gov/dtpstandard/dwindex/index.jsp; details: ref https://dtp.cancer.gov/dtpstandard/dwindex/index.jsp; cited from earlier work
[35] = test system: Colon Cancer subpanel tumor cell lines; details: cited from earlier work; for GI50: read-out: GI50, subpanel average, ref https://dtp.cancer.gov/dtpstandard/dwindex/index.jsp; for CC50: read-out: LC50, subpanel average, ref https://dtp.cancer.gov/dtpstandard/dwindex/index.jsp; for TGI, subpanel average: ref https://dtp.cancer.gov/dtpstandard/dwindex/index.jsp
[36] = test system: IGROV1; parameters: method as in https://dtp.cancer.gov/dtpstandard/dwindex/index.jsp; details: ref https://dtp.cancer.gov/dtpstandard/dwindex/index.jsp; cited from earlier work
[37] = test system: Breast Cancer subpanel tumor cell lines; details: cited from earlier work; for GI50: read-out: GI50, subpanel average, ref https://dtp.cancer.gov/dtpstandard/dwindex/index.jsp; for TGI, subpanel average: ref https://dtp.cancer.gov/dtpstandard/dwindex/index.jsp
[38] = test system: MDA-MB-468; parameters: method as in https://dtp.cancer.gov/dtpstandard/dwindex/index.jsp; details: ref https://dtp.cancer.gov/dtpstandard/dwindex/index.jsp; cited from earlier work
[39] = test system: NCI-H522; parameters: method as in https://dtp.cancer.gov/dtpstandard/dwindex/index.jsp; details: ref https://dtp.cancer.gov/dtpstandard/dwindex/index.jsp; cited from earlier work

In the case of Cc1ccc(-c2cc(C(F)(F)F)nn2-c2ccc(S(N)(=O)=O)cc2)cc1 [Celecoxib, celecoxib], the GI50 [1] is listed as 15.8 µM, the GI50 [2] is listed as 15.8 µM and the GI50 [3] is listed as 39.8 µM. For the same compound, the GI50 [4] was 19.9 µM, the GI50 [5] was 19.9 µM and the GI50 [6] was 15.8 µM. For the same compound, the GI50 [7] was 15.8 µM, the GI50 [8] was 17.1 µM and the CC50 [8] was 65.9 µM. The “TGI, subpanel average” value [8] was 34.20 µM, the GI50 [9] was 15.8 µM and the GI50 [10] was 12.3 µM. The CC50 [10] was 67.1 µM, the “TGI, subpanel average” value [10] was 29.27 µM and the GI50 [11] was 12.6 µM. The GI50 [12] was 19.9 µM, the GI50 [13] was 15.8 µM and the GI50 [14] was 10 µM. For the same compound, the GI50 [15] was 63.1 µM, the GI50 [16] was 15.8 µM and the GI50 [17] was 15.8 µM. For the same compound, the GI50 [18] was 19.9 µM, the GI50 [19] was 15.8 µM and the GI50 [20] was 15.8 µM. For the same compound, the GI50 [21] was 19.9 µM, the GI50 [22] was 12.6 µM and the GI50 [23] was 19.9 µM. The GI50 [24] was 15.8 µM, the GI50 [25] was 15.8 µM and the GI50 [26] was 19.9 µM. For the same compound, the CC50 [26] was 61.2 µM, the “TGI, subpanel average” value [26] was 41.19 µM and the GI50 [27] was 19.9 µM. For the same compound, the GI50 [28] was 19.9 µM, the GI50 [29] was 15.8 µM and the GI50 [30] was 15.8 µM. For the same compound, the GI50 [31] was 15.8 µM, the GI50 [32] was 15.8 µM and the GI50 [33] was 15.8 µM. The GI50 [34] was 15.8 µM, the GI50 [35] was 20.7 µM and the CC50 [35] was 66.5 µM. The “TGI, subpanel average” value [35] was 41.39 µM, the GI50 [36] was 15.8 µM and the GI50 [37] was 17.5 µM. For the same compound, the “TGI, subpanel average” value [37] was 34.89 µM.
For C#Cc1cccc(Nc2ncnc3cc(OCCOC)c(OCCOC)cc23)c1 [Erlotinib, erlotinib], the GI50 [1] is listed as 25.1 µM, the GI50 [2] is listed as 1.99 µM and the GI50 [3] is listed as 10 µM. For the same compound, the GI50 [4] was 31.6 µM, the GI50 [5] was 6.31 µM and the GI50 [6] was 31.6 µM. The GI50 [7] was 3.16 µM, the GI50 [8] was 5.52 µM and the CC50 [8] was 97.1 µM. For the same compound, the “TGI, subpanel average” value [8] was 74.41 µM, the GI50 [9] was 79.4 µM and the GI50 [10] was 27.9 µM. The CC50 [10] was greater than 100 µM, the “TGI, subpanel average” value [10] was 96.57 µM and the GI50 [11] was 10 µM. For the same compound, the GI50 [12] was 7.94 µM, the GI50 [13] was 6.31 µM and the GI50 [14] was 31.6 µM. For the same compound, the GI50 [15] was 6.31 µM, the GI50 [16] was 3.98 µM and the GI50 [17] was 25.1 µM. For the same compound, the GI50 [18] was 19.9 µM, the GI50 [19] was 6.31 µM and the GI50 [20] was 19.9 µM. For the same compound, the GI50 [21] was 0.1 µM, the GI50 [22] was 50.1 µM and the GI50 [23] was 0.5 µM. The GI50 [38] was 0.126 µM, the GI50 [24] was 15.8 µM and the GI50 [25] was 100 µM. The GI50 [26] was 2.46 µM, the CC50 [26] was 89.2 µM and the “TGI, subpanel average” value [26] was 42.59 µM. The GI50 [39] was 1 µM, the GI50 [27] was 7.94 µM and the GI50 [28] was 0.199 µM. For the same compound, the GI50 [29] was 7.94 µM, the GI50 [30] was 10 µM and the GI50 [31] was 0.199 µM. For the same compound, the GI50 [32] was 50.1 µM, the GI50 [33] was 12.6 µM and the GI50 [34] was 1.58 µM. The GI50 [35] was 51.7 µM, the CC50 [35] was greater than 100 µM and the “TGI, subpanel average” value [35] was “c (compounds showed values ≥ 100 μM)”. For the same compound, the GI50 [36] was 0.316 µM, the GI50 [37] was 24.7 µM and the CC50 ([37]; read-out: LC50, subpanel average, ref https://dtp.cancer.gov/dtpstandard/dwindex/index.jsp) was 96.4 µM. For the same compound, the “TGI, subpanel average” value [37] was 70.53 µM.
